What all share (experiment): in vitro enzyme assay with purified recombinant CPS and GGPP, GC-FID
Common to all, as to assay type: biochemical

Test [1] has as its target T1, AtCPS (ent-copalyl diphosphate synthase, GA1) (Arabidopsis thaliana, UniProt Q38802).
T1 sequence (Q38802 85-802): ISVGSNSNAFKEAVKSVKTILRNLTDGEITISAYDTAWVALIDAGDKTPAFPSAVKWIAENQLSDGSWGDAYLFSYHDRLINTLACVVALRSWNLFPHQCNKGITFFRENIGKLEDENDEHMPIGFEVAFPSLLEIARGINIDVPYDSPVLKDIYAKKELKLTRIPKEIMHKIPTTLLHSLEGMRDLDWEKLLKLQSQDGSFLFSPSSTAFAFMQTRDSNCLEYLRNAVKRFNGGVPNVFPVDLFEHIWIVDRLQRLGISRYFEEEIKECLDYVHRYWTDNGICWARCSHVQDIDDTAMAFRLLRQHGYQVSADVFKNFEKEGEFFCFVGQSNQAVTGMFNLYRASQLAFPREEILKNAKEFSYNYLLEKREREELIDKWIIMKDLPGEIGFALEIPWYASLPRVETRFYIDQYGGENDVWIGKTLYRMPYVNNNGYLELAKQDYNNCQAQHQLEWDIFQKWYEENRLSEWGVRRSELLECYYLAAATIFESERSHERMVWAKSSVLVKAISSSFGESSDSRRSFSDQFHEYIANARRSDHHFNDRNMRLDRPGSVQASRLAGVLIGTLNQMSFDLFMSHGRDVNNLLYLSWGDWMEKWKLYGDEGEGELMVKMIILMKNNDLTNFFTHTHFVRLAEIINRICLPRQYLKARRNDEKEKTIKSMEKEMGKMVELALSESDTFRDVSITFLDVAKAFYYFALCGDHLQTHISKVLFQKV

Another test addresses T2, ZmCPS2 (An2) (Zea mays, UniProt A0A1D6K6U5).
T2 sequence (A0A1D6K6U5 71-825): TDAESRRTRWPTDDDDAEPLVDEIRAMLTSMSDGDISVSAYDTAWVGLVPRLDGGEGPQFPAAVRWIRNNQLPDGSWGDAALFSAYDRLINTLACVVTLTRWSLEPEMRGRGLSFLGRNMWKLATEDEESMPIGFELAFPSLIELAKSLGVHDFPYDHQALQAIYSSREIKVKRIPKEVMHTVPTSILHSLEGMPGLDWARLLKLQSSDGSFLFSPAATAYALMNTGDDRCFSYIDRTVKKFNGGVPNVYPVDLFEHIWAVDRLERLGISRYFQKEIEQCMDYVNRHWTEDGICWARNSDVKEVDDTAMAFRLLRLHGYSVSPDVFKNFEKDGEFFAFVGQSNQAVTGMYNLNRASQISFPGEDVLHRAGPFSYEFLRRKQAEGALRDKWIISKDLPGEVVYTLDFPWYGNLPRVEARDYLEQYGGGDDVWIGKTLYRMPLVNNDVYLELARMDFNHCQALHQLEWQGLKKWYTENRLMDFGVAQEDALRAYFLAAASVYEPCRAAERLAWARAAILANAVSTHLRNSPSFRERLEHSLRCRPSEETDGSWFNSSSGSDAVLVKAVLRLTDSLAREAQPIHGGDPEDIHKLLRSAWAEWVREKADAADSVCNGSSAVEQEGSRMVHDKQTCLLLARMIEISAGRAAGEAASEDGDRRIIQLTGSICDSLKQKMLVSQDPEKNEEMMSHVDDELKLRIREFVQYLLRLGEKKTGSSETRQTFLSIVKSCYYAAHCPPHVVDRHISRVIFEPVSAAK

A further test concerns the target T3, ZmCPS1 (An1) (Zea mays, UniProt Q41771).
T3 sequence (Q41771 64-824): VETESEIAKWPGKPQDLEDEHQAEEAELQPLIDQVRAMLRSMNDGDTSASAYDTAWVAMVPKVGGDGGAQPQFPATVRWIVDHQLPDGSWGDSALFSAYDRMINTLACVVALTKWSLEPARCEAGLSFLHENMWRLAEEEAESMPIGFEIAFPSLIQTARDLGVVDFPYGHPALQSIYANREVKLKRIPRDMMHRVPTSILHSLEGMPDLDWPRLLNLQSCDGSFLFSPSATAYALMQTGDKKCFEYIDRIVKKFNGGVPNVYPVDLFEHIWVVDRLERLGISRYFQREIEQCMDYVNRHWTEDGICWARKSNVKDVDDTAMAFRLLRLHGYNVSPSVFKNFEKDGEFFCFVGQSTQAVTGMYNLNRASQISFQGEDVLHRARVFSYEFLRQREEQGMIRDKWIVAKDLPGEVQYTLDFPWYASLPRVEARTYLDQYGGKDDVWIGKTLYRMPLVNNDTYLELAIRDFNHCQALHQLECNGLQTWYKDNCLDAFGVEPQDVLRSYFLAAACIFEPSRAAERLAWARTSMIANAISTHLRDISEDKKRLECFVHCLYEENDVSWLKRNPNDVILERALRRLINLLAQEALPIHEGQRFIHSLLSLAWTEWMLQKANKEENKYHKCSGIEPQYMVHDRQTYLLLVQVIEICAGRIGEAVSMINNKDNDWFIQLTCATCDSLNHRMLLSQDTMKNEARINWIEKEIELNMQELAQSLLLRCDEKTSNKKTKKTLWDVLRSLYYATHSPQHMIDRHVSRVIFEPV

Take `C[N+]1(C)CCCCC1` [DPC, 1,1-dimethyl-piperidinium chloride]: the 50% inhibitory concentration (IC50) (as a rule, the point on the concentration scale where inhibition reaches its midpoint) in test [1] was 30 µM; at ZmCPS2 (An2), 4000 µM; on ZmCPS1 (An1) it was 2000 µM.

The record behind these values is PMC7194013 (Nature plants, 2020).
